One assay deals with T1, G-actin (Oryctolagus cuniculus, UniProt P68135).
T1 construct: Actin was purified from rabbit muscle as CaATP–G-actin complex; from tissue; host or cells: rabbit muscle
As to the kind of experiment: Pyrenyl-actin G-actin polymerization assay. It counts as biochemical, rabbit. The settings on record: 16.7 µM peptide, 2 μM MgATP–G-actin with 10% pyrenyl-labeled actin, 22 °C. The method, then:
Actin was purified from rabbit muscle as CaATP–G-actin complex according to the published method using Supredex S200 (Cytiva Lifesciences) size exclusion chromatography in a buffer G composed of 5 mM Tris/HCl, pH 7.8, 0.2 mM CaCl2, 0.2 mM ATP, 0.5 mM dithiothreitol, and 0.01% NaN3. The purified G-actin was fluorescently labeled on Cys-374 with N-(1-pyrene) iodoacetamide (Invitrogene) to a molar ratio of 0.8 to 1.0 pyrene/G-actin, as described previously. CaATP–G-actin was converted into MgATP–G-actin by incubation on ice for 20 min with 20 μM MgCl2 and 0.2 mM EGTA to 10 μM and was used within 1 h.
G-actin polymerization was monitored by following the increase in the fluorescence of 10% pyrenyl-labeled actin. […] Fluorescence measurements were carried out at 22 °C in a Horiba/Jobin Yvon FluoroLog Spectrofluorometer using excitation and emission wavelengths of 365 and 407 nm, respectively. Data were analyzed using GraphPad Prism4.1.681 for Windows software (San Diego, CA, USA).
Figure 5 D-Δ(1-18)N-Ter-Antp altered actin filament organization (A,B) U-87MG cells were cultured and incubated for 24 h with D-Δ(1-18)N-Ter-Antp (10 µM). Cells were stained for actin using Phalloidin-488 and visualized by confocal microscopy (A) and quantified for Phalloidin-488 staining intensity (B). […] (D) Actin interaction with VDAC1 analyzed using the MST method. […]

A further assay has as its system U-87MG cells. Briefly: Live-cell imaging (HoloMonitor) of cell division and re-fusion of daughter cells. It counts as cell-based, human. Also on record: dose or concentration left out as unconfirmed. The note with it: 24 h incubation. On the procedure: Cells were seeded in a 6-well plates, treated with D-Δ(1-18)N-Ter-Antp peptide for 24 h, and monitored with the Holomonitor live cell imaging system (Holographic Imaging, Lund, Sweden) for 24 h at 37 °C and 5% CO2 or with a microscope (LX2-KSP; Olympus, Shinjuku, Tokyo, Japan), with images captured by a CCD camera.
Figure 8 D-Δ(1-18)N-Ter-Antp peptide induced apoptosis and altered cell division. (A) HeLa cells were treated with D-Δ1-18N-Ter-Antp (5 μM, 24 h) and monitored using a live-imaging microscope (HoloMonitor). The time course of cell division is presented. Division–fusion phase times are represented in relation to D-Δ(1-18)N-Ter-Antp administration time (T = 0). i. The cells are in a pre-division stage. ii. The cell divides into two cells. iii. The cell becomes partially fused. iv. The cells become fully fused into one large cell. v. Finally, they become an apoptotic cell. (B,C) HeLa cells incubated with the peptide (10 μM, 24 h) and then stained with anti-tubulin antibodies, followed by secondary anti-mouse-cy3 antibodies (red) followed by actin staining with Phalloidin-488 (green), nuclei stained with DAPI (blue) and visualized by confocal microscopy. Cells with divided nuclei that were connected or in a re-fused state are circled (C). (D) Schematic illustration of cell division phases of control and D-Δ(1-18)N-Ter-Antp peptide-treated cells.
Figure A1 Vedio S1. […]

Consider “19-FTKGYGFGL-26- RQIKIWFQNRRMKWKK [D-Δ(1-18)N-Ter-Antp]”, for which the “Effect on G-actin polymerization” value at G-actin is reported as “inhibition of the actin filament assembly”. Also, the “Percentage of cells with re-fusion of daughter cells” value in the assay with U-87MG cells was 60–80%.
